Test system: MMP-2
Assay: Substrate phage display with NGS: relative probability (RP) of P3-P1' tetramer clusters;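 as to relative probability (RP): ratio of tetramer probability after protease selection to that in naive phage library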
Type: biochemical, human
Conditions: MMP2 - no binning; average relative probability (RP) of the P3-P1' tetramer; redundant tetramers have been averaged out

| Substance | avg_RP |
| --- | --- |
| PYFL | 19.1471 |
| PYLL | 11.898 |
| SARL | 4.5839 |
| SASL | 17.7881 |
| SAYL | 11.6614 |
| SGAY | 6.7841 |
| SLRL | 0 |
| SMYL | 1.2279 |
| SQHL | 0.2367 |
| SWPL | 0.4201 |
| SYPL | 1.464 |
| TAWL | 24.7743 |
| THHL | 0.3701 |
| TMAL | 0.4939 |
| TMWL | 5.1973 |
| TWRL | 0 |
| TWSM | 0 |
| VAFL | 20.6554 |
| VAWL | 32.2185 |
| VDQL | 0.0432 |
| VEPL | 2.5219 |
| VFRL | 1.3631 |
| VGHL | 31.6783 |
| VGVL | 7.4169 |
| VHAL | 19.753 |
| VHML | 3.9806 |
| VKFL | 9.5539 |
| VLFL | 1.6486 |

| Substance | avg_RP |
| --- | --- |
| VLPL | 20.3086 |
| VMKL | 0.3599 |
| VMRL | 0.4281 |
| VMYL | 5.0318 |
| VNFL | 7.2989 |
| VNRI | 0 |
| VRFM | 15.2846 |
| VRHI | 19.1429 |
| VRNL | 29.2567 |
| VWGL | 12.3495 |
| VWHL | 10.1663 |
| VWKL | 0.2836 |
| VWRL | 0.9525 |
| VYAL | 19.6906 |
| VYRL | 5.0832 |
| WASM | 16.5169 |
| YAHM | 12.8446 |
| YAHY | 10.8158 |
| YAWM | 14.9473 |
| YLNL | 0.3873 |
| YLNY | 1.6791 |
| YLPL | 2.3089 |
| YMHI | 0 |
| YQSL | 16.6669 |
| YRAL | 8.2547 |
| YRFM | 0 |
| YRSM | 5.2577 |

Same assay, conditions: MMP2 - no binning; average relative probability of the P3-P1' tetramer; redundant tetramers have been averaged out

| Substance | avg_RP |
| --- | --- |
| PYML | 24.9477 |
| PYTL | 16.827 |
| QLAM | 5.2406 |
| QMSL | 0.2763 |
| QQNL | 4.2466 |
| RRNL | 6.1579 |
| SAWL | 18.9346 |
| SFAL | 0.5631 |
| SFNL | 1.0952 |
| SGEL | 0.1149 |
| SGFL | 6.5712 |
| SGML | 1.3118 |
| SGNL | 12.7361 |
| SGPL | 2.1571 |
| SGQL | 1.0305 |
| SGRL | 0.7262 |
| SGSL | 7.2251 |
| SLPL | 8.6373 |
| SMNL | 2.1645 |
| SMRL | 0 |
| SQSL | 5.003 |
| SWAW | 0.0563 |

| Substance | avg_RP |
| --- | --- |
| SWSL | 0.0547 |
| SYAL | 4.7967 |
| SYWL | 0.9791 |
| TLHL | 2.4714 |
| TLNL | 2.7643 |
| TQHL | 2.9223 |
| TRNL | 12.3403 |
| TWAL | 0.4366 |
| TYAL | 5.848 |
| VAPL | 30.036 |
| VDYL | 1.426 |
| VELL | 0 |
| VEYL | 5.3014 |
| VFAL | 11.8827 |
| VFGL | 12.5523 |
| VFHM | 5.168 |
| VFNL | 14.497 |
| VFSM | 2.2653 |
| VFWM | 10.3215 |
| VGML | 28.5913 |
| VHQM | 0 |
| VHRL | 1.5304 |

| Substance | avg_RP |
| --- | --- |
| VHSF | 0.0855 |
| VIAL | 8.0877 |
| VKHL | 14.8595 |
| VLAL | 13.5229 |
| VLHL | 19.5348 |
| VLMM | 2.7364 |
| VLNM | 19.025 |
| VLWL | 11.1539 |
| VMLL | 0.4692 |
| VMLM | 0.5571 |
| VMNL | 18.6016 |
| VMRM | 0.0611 |
| VMSL | 14.6983 |
| VNLL | 0.5682 |
| VNNL | 17.6966 |
| VNSL | 13.3292 |
| VNYL | 8.4267 |
| VQLL | 8.0197 |
| VRML | 15.9125 |
| VRNW | 17.7682 |
| VRSL | 12.3051 |
| VSEL | 24.0996 |

| Substance | avg_RP |
| --- | --- |
| VSYL | 20.2936 |
| VWAL | 12.7502 |
| VWGI | 3.0103 |
| VWHV | 0 |
| VWLL | 0.5351 |
| VWNI | 4.0144 |
| VWWQ | 0.2844 |
| VWYL | 3.6672 |
| VYAW | 0.6193 |
| VYDL | 1.2439 |
| VYML | 5.0943 |
| VYSL | 16.838 |
| WAHL | 7.453 |
| WAPL | 23.9342 |
| WESL | 0.6249 |
| WGNL | 14.7295 |
| WGNM | 3.7232 |
| WHNM | 0 |
| WLAL | 1.2175 |
| WLNL | 0.1218 |
| WLPI | 0.6666 |
| WQNL | 6.2916 |

| Substance | avg_RP |
| --- | --- |
| WRHL | 0.4087 |
| WSGM | 18.3143 |
| WSNL | 17.9326 |
| WYGM | 0.0531 |
| YANL | 27.7486 |
| YANM | 22.6837 |
| YASM | 24.1553 |
| YAYI | 1.7086 |
| YFNL | 0 |
| YFPL | 0.1432 |
| YFSM | 0.0661 |
| YGEL | 16.6627 |
| YGHL | 11.3746 |
| YGNM | 13.8836 |
| YLPM | 0.4306 |
| YMGL | 0.0982 |
| YMNI | 0 |
| YRGL | 5.4447 |
| YRHM | 0.3212 |
| YRSL | 1.5061 |

Same assay, conditions: MMP2 - no binning; average relative probability of the tetramer; redundant tetramers averaged out

| Substance | avg_RP |
| --- | --- |
| PYGM | 27.2726 |
| PYHI | 15.3574 |
| PYHL | 27.2418 |
| PYKL | 15.5683 |
| PYKY | 4.8733 |
| PYNL | 30.8263 |
| PYPL | 30.8058 |
| PYSL | 30.7259 |
| PYSW | 16.4352 |
| QLSL | 0.4979 |
| QQGL | 6.4014 |
| SANL | 23.7816 |
| SGAL | 13.4712 |
| SGHL | 1.458 |
| SHGL | 0.2009 |
| SLAL | 6.0193 |
| SLAW | 18.2943 |
| SLNL | 3.3019 |
| SNWL | 9.68 |
| SRAL | 12.4506 |
| SRGL | 6.1644 |
| SWGL | 0.1389 |

| Substance | avg_RP |
| --- | --- |
| SYNL | 6.0933 |
| TFHL | 0.1298 |
| TLAL | 1.9537 |
| TNWL | 15.348 |
| TQNL | 7.2378 |
| TRWL | 15.1455 |
| TRWY | 6.7229 |
| VAAV | 19.031 |
| VAKM | 17.3627 |
| VAYL | 26.5348 |
| VEAL | 10.756 |
| VEML | 2.1238 |
| VFEL | 0.8652 |
| VFSI | 0.2237 |
| VFSL | 9.6313 |
| VFWY | 6.3003 |
| VGAL | 32.8382 |
| VHHL | 14.1228 |
| VKGM | 15.5854 |
| VKWL | 19.0036 |
| VLNL | 18.9065 |
| VLSL | 10.8506 |

| Substance | avg_RP |
| --- | --- |
| VMGI | 12.4242 |
| VMNY | 12.7895 |
| VNHL | 12.8499 |
| VNWM | 16.277 |
| VQHL | 22.9738 |
| VRAH | 14.8064 |
| VRAI | 26.2338 |
| VRAL | 30.4312 |
| VRAV | 10.114 |
| VRDL | 21.7219 |
| VRFL | 15.0438 |
| VRGL | 29.092 |
| VRGM | 26.4376 |
| VRGV | 2.6159 |
| VRHL | 25.4239 |
| VRHV | 9.5401 |
| VRKL | 0 |
| VRLL | 4.002 |
| VRMM | 13.0027 |
| VRNV | 5.0406 |
| VRQL | 16.7722 |
| VRSI | 11.7832 |

| Substance | avg_RP |
| --- | --- |
| VRWS | 8.0593 |
| VRWY | 17.3102 |
| VRYL | 18.3724 |
| VSFL | 5.9184 |
| VVWY | 9.9375 |
| VWAI | 3.2193 |
| VWHI | 1.9312 |
| VWML | 1.4023 |
| VWNL | 14.4124 |
| VWNY | 4.6964 |
| VWPL | 5.2943 |
| VYGL | 17.3788 |
| VYLL | 1.2276 |
| VYNL | 19.1818 |
| VYWL | 16.4375 |
| VYWM | 12.492 |
| WAHI | 0.0575 |
| WASI | 12.5247 |
| WFAL | 0 |
| WFNL | 0 |
| WHGL | 0.5588 |
| WMNL | 0 |

| Substance | avg_RP |
| --- | --- |
| WQGL | 12.939 |
| WRAF | 9.8395 |
| WRAL | 22.4074 |
| WRAY | 17.4833 |
| WRGL | 23.375 |
| WRNL | 6.7583 |
| WSSL | 16.6561 |
| WSWL | 7.8776 |
| WYGI | 0.0533 |
| YAGL | 20.9112 |
| YAHL | 18.7061 |
| YASL | 26.9916 |
| YGNL | 24.0019 |
| YHHL | 0 |
| YLHL | 0.4077 |
| YMSL | 0.0725 |
| YNHL | 3.693 |
| YQGL | 4.3322 |

Same assay, conditions: tetramer annotation of MMP-2 cleavage sites in physiologic substrates from MEROPS

| Substance | relative probability (RP) |
| --- | --- |
| RIIG | 0.08 |

Same assay, conditions: tetramer clusters unique to the MMP-2 selectome, MMP-2 RP

| Substance | relative_probability |
| --- | --- |
| VANW [P3-P1' tetramer cluster] | 29.92 |
| YAAL [P3-P1' tetramer cluster] | 30.40 |

From paper PMC7932537, “Quantitative profiling of protease specificity” (PLoS Computational Biology, 2021)
